Here are results for 59 compounds from patent US12590094B2, “Compounds for the treatment of neurodegenerative and metabolic disorders” (UNIVERSITY OF FLORIDA RESEARCH FOUNDATION, INCORPORATED, priority 2019, dated 2026).

pEC50: −log10 of the molar value.

The test system of this assay is Cells exposed to TPrP. Briefly: cells. The note with it: read-out: Viability EC50.
As for `COCc1cc(-c2ccc(OC)cc2)nc2c(C(=O)NCCCn3ccnc3)cnn12` [SR3-5250], the pEC50 (in general, the negative decadic logarithm of the EC50, by convention in mol/L) is 9.30.
For the compound `c1ccc2c(c1)CC(CNc1nnc(Cc3ccncc3)c3ccccc13)CO2` (centres unmarked) [SR-27890], the pEC50 is 6.85.
Then `Cc1c(-c2ccc3c(c2)OCO3)nc2c(C(=O)NCCCn3ccnc3C)cnn2c1C` [SR0-31106], with 7.52.
As for `COc1ccc(-c2cc(N3CCCC3)n3ncc(C(=O)NCCCn4ccnc4C)c3n2)cc1` [SR0-29249], the pEC50 was 8.66.
For `c1ccc2c(NCC3CCOCC3)nnc(Cc3ccncc3)c2c1` [SR-30008], the pEC50 is 8.10.
The value for `COc1ccc(CNc2nnc(Cc3ccncc3)c3ccccc23)cc1OC` [SR-27886] was 6.85.
Turning to `CCOC(=O)c1c(CC)ncc2[nH]c3cc(OC)c(OC)cc3c12` [SR26084], the pEC50 was about 5.00.
The value for `CCCCNS(=O)(=O)c1ccc(Nc2nc(-c3ccncc3)cs2)cc1` [SR-27808] was 6.77; that for `CNS(=O)(=O)c1ccc(Nc2nc(-c3ccc(S(N)(=O)=O)cc3)cs2)cc1` [SR-29451] was 7.70; that for `COc1ccc(-c2cc(C(F)(F)F)n3ncc(C(=O)N(C)CCCn4ccnc4)c3n2)cc1` [SR3-5314] was under 7.80.
In the case of `COc1ccc(-c2cc(C(C)(C)C)n3ncc(C(=O)NCCCn4ccnc4)c3n2)cc1` [SR0-28464], the pEC50 is 8.92.
Then `CN(C)S(=O)(=O)c1ccc(Nc2nc(-c3ccncc3)cs2)cc1` [SR-27744], with 7.22.
The value for `COc1ccc(-c2cc(C(F)(F)F)n3ncc(C(=O)NCCCn4cnc5ccccc54)c3n2)cc1` [SR3-5313] was under 7.80.
With `c1ccc2oc(Nc3nnc(Cc4ccncc4)c4ccccc34)nc2c1` [SR-30010], the pEC50 is 8.70.
The value for `C/C(=N\O)c1cccc(Nc2nnc(Cc3ccncc3)c3ccccc23)c1` [SR-30013] was 8.70; that for `CNS(=O)(=O)c1ccc(Nc2nc(-c3ccncc3)cs2)cc1` [SR-27806] was 7.22.
Then `O=S(=O)(Nc1ccc(F)cc1)c1ccc(Nc2nc(-c3ccncc3)cs2)cc1` [SR-29448], with under 6.30; and `c1ccc2c(c1)CC(CNc1nnc(Cc3ccncc3)c3ccccc13)O2` (centres unmarked) [SR-30024], with 8.10.
Then `CC1(c2cccc(Nc3nnc(Cc4ccncc4)c4ccccc34)c2)OCCO1` [SR-30012], with 8.70; and `Cc1nc(C)c(-c2csc(Nc3ccc(S(=O)(=O)Nc4ccc(F)cc4)cc3)n2)s1` [SR-29449], with under 6.30; and `COc1ccc(-c2cc(C(F)(F)F)n3ncc(C(=O)NCCCCn4ccnc4)c3n2)cc1` [SR3-5312], with 8.22.
Consider `c1ccc2[nH]c(CNc3nnc(Cc4ccncc4)c4ccccc34)cc2c1` [SR-30006], for which the pEC50 is 7.52.
Then `O=S(=O)(Nc1ccccc1)c1ccc(Nc2nc(-c3ccncc3)cs2)cc1` [SR-29444], with under 6.30; and `O=S(=O)(c1ccc(Nc2nc(-c3ccncc3)cs2)cc1)N1CCCC1` [SR-28544], with 6.46; and `CCOc1ccc(-c2cc(C)n3ncc(C(=O)NCCCn4ccnc4C)c3n2)cc1` [SR0-29245], with 8.92.
For the compound `COc1ccc(-c2cc(C)n3ncc(C(=O)NCCCn4ccnc4)c3n2)cc1` [SR3-5170], the pEC50 is 9.00.
The value for `c1ccc(OCCNc2nnc(Cc3ccncc3)c3ccccc23)cc1` [SR-27892] was 6.30; that for `c1ccc2c(c1)OCCC2Nc1nnc(Cc2ccncc2)c2ccccc12` (centres unmarked) [SR-27891] was 6.70; that for `c1ccc2c(c1)CC(Nc1nnc(Cc3ccncc3)c3ccccc13)C2` [SR-27885] was 6.70.
The value for `CCc1nccn1CCCNC(=O)c1cnn2c(C(F)(F)F)cc(-c3ccc(OC)cc3)nc12` [SR0-29244] was 7.60.
The value for `Cc1nc(C)c(-c2csc(Nc3ccc(S(=O)(=O)Nc4ccccc4)cc3)n2)s1` [SR-29445] was under 6.30; that for `Cc1nccn1CCCNC(=O)c1cnn2c(C)cc(-c3ccc(OC(F)(F)F)cc3)nc12` [SR0-29246] was 8.70.
Take `COc1ccc(-c2cc(C(F)(F)F)n3ncc(C(=O)NCCCn4ccnc4F)c3n2)cc1` [SR0-28467]: the pEC50 was 7.80.
Consider `Cc1nc(C)c(-c2nc(Nc3ccc(S(N)(=O)=O)cc3)sc2CO)s1` [SR-28551], for which the pEC50 is 6.52.
Then `CC(O)c1cccc(Nc2nnc(Cc3ccncc3)c3ccccc23)c1` (centres unmarked) [SR-29684], with 8.70.
As to `CCCNS(=O)(=O)c1ccc(Nc2nc(-c3ccncc3)cs2)cc1` [SR-27804], the pEC50 was 6.77.
Then `Cc1nc(C)c(-c2csc(Nc3ccc(S(=O)(=O)N4CCOCC4)cc3)n2)s1` [SR-28549], with 6.40; and `c1ccc2c(c1)CCC2Nc1nnc(Cc2ccncc2)c2ccccc12` (centres unmarked) [SR-27884], with 6.30.
Then `Cc1nccn1CCCNC(=O)c1cnn2c(C)cc(-c3ccc4c(c3)OCO4)nc12` [SR0-29247], with 8.66; and `c1ccc2[nH]c(CNc3nnc(Cc4ccncc4)c4ccccc34)nc2c1` [SR-27887], with 6.70.
The value for `CCCNS(=O)(=O)c1ccc(Nc2nc(-c3sc(C)nc3C)cs2)cc1` [SR-27805] was under 6.30.
Regarding `Cc1nccn1CCCNC(=O)c1cnn2c(C(C)(C)C)cc(-c3ccc4c(c3)OCO4)nc12` [SR0-31104], the pEC50 was 8.00.
Then `O=S(=O)(c1ccc(Nc2nc(-c3ccncc3)cs2)cc1)N1CCOCC1` [SR-28548], with 6.77; and `Cc1nc(C)c(-c2csc(Nc3ccc(S(=O)(=O)N(C)C)cc3)n2)s1` [SR-27764], with 7.15.
With `CCNS(=O)(=O)c1ccc(Nc2nc(-c3ccncc3)cs2)cc1` [SR-27784], the pEC50 is 7.22.
For `c1ccc2oc(CNc3nnc(Cc4ccncc4)c4ccccc34)nc2c1` [SR-27888], the pEC50 is 7.35.
Then `Cc1ccc(NS(=O)(=O)c2ccc(Nc3nc(-c4sc(C)nc4C)cs3)cc2)cc1` [SR-29447], with under 6.30.
The value for `COc1ccc(-c2cc(C(F)(F)F)n3ncc(C(=O)NCCCn4ccnc4C(F)(F)F)c3n2)cc1` [SR0-28466] was 7.70; that for `CCc1cc(-c2ccc(OC)cc2)nc2c(C(=O)NCCCn3ccnc3)cnn12` [SR3-5310] was 9.22.
Then `NS(=O)(=O)c1ccc(Nc2nc(-c3ccc(S(N)(=O)=O)cc3)cs2)cc1` [SR-29450], with 7.82.
Take `Cc1nc(N)sc1-c1csc(Nc2ccc(S(N)(=O)=O)cc2)n1` [SR-28552]: the pEC50 is 6.80.
Then `CO/N=C(\C)c1cccc(Nc2nnc(Cc3ccncc3)c3ccccc23)c1` [SR-30014], with 8.70.
Then `COc1ccc(-c2cc(C(C)C)n3ncc(C(=O)NCCCn4ccnc4)c3n2)cc1` [SR3-5311], with 9.40; and `c1ccc2oc(CNc3nnc(Cc4ccncc4)c4ccccc34)cc2c1` [SR-30011], with 8.70.
The value for `c1ccc2c(NCC3CCCO3)nnc(Cc3ccncc3)c2c1` (centres unmarked) [SR-30004] was 7.35; that for `CCNS(=O)(=O)c1ccc(Nc2nc(-c3sc(C)nc3C)cs2)cc1` [SR-27785] was 6.30.
As for `Cc1nc(C)c(-c2csc(Nc3ccc(S(=O)(=O)N4CCCCC4)cc3)n2)s1` [SR-28547], the pEC50 is under 6.30.
The value for `c1coc(CNc2nnc(Cc3ccncc3)c3ccccc23)c1` [SR-30005] was 7.82; that for `Cc1nc(C)c(-c2csc(Nc3ccc(S(=O)(=O)N4CCCC4)cc3)n2)s1` [SR-28545] was under 6.30.
